Here are results for five compounds from US20250115669A1, “FGFR1/KLB Targeting Agonistic Antigen-Binding Proteins and Conjugates Thereof with GLP-1R Agonistic Peptides” (SANOFI, priority 2020, published 2025).

Each structure is given as a SMILES string. pEC50: −log10 of the molar value. Where two headings read alike, the source gives them in different places. Peptide text beside a SMILES is read from it.

Holding throughout (format): cell-based
The target in one assay is T1, human GIP receptor (Homo sapiens, UniProt P48546).
T1 construct: expressed in transfected cells; host or cells: PSC-HEK-293
T1 sequence (P48546 22-466): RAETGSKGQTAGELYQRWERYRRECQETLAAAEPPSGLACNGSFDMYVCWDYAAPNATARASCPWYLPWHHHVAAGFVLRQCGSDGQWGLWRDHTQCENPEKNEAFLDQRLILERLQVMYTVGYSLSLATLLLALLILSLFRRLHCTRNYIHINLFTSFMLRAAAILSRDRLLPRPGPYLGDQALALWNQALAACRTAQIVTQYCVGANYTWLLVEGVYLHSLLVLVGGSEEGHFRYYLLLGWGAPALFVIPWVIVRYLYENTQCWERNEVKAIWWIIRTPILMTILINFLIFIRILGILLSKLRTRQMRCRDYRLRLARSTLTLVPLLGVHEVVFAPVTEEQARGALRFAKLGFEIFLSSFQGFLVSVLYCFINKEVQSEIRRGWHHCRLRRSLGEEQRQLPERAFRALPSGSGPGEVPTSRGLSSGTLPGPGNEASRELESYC
Description: HTRF cAMP assay in HEK-293 cells expressing human GIP receptor. Background: TR-FRET usually uses a lanthanide donor and a delayed reading to cut background.

The target in assay [1] is T2, human glucagon (GCG) receptor (Homo sapiens, UniProt P47871).
T2 construct: expressed in transfected cells; host or cells: PSC-HEK-293
In words: HTRF cAMP assay in HEK-293 cells expressing human glucagon receptor.

Another assay concerns the target T3, human GLP-1 receptor (Homo sapiens, UniProt P43220).
T3 construct: expressed in transfected cells; host or cells: PSC-HEK-293
Description: HTRF cAMP assay in HEK-293 cells expressing human GLP-1 receptor. As to the method:
Each vial contained 1.8 ml cells. The vials were slowly frozen to −80° C. in isopropanol, and then transferred in liquid nitrogen for storage.
Cells were resuspended in assay buffer (cell buffer plus 2 mM IBMX) and adjusted to a cell density of 1 million cells/ml.
For measurement of cAMP generation, 5 μl cells (final 5000 cells/well) and 5 μl of test compound were added to a 384-well plate, followed by incubation for 30 min at room temperature.
The cAMP generated was determined using a kit from Cisbio Corp. based on HTRF (Homogenous Time Resolved Fluorescence). The cAMP assay was performed according to manufacturer's instructions (Cisbio).

[2] abbreviates: HEK-293 cells, read-out: HTRF cAMP EC50 Human GIPR.
The mark [3] stands for this setting: HEK-293 cells, read-out: HTRF cAMP EC50 Human GCGR.
[4] abbreviates: HEK-293 cells, read-out: HTRF cAMP EC50 Human GLP-1R.

T2 sequence (P47871 26-477): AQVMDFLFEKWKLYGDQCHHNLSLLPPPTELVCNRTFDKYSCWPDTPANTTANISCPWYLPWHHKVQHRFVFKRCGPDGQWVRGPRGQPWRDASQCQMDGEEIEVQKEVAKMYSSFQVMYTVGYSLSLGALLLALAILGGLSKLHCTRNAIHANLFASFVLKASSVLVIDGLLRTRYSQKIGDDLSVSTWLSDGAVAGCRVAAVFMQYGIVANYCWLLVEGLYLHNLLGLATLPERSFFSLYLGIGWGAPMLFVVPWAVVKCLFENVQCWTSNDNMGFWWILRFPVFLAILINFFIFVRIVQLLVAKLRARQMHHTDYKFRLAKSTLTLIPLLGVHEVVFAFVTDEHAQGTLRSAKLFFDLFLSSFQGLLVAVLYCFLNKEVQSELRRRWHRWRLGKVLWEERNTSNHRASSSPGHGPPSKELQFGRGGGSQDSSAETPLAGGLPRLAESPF
T3 sequence (P43220 24-463): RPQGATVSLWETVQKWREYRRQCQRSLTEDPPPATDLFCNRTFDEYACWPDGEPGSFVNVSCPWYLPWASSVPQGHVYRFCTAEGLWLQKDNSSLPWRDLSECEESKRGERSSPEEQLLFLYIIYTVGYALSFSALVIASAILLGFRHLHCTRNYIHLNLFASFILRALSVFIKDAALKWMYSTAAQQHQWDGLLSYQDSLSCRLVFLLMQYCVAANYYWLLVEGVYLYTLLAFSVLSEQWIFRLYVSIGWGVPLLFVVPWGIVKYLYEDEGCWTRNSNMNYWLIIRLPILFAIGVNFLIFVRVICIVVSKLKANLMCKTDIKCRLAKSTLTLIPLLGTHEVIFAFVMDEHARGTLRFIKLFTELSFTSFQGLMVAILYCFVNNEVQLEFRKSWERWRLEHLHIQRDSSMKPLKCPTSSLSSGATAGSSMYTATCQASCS

In the case of `CC[C@H](C)[C@H](NC(=O)[C@H](Cc1ccccc1)NC(=O)[C@H](CC(C)C)NC(=O)[C@H](CCC(N)=O)NC(=O)[C@@H](NC(=O)[C@H](C)NC(=O)[C@H](CCC(=O)O)NC(=O)[C@H](CCC(=O)O)NC(=O)[C@H](CCC(=O)O)NC(=O)[C@H](CC(C)C)NC(=O)[C@H](CCC(N)=O)NC(=O)[C@H](CCCCN)NC(=O)[C@H](CO)NC(=O)[C@H](CC(C)C)NC(=O)[C@H](CC(=O)O)NC(=O)[C@H](CO)NC(=O)[C@@H](NC(=O)[C@H](Cc1ccccc1)NC(=O)[C@@H](NC(=O)CNC(=O)[C@H](CCC(=O)O)NC(=O)CNC(=O)[C@H](Cc1c[nH]cn1)NC(=O)CN)[C@@H](C)O)[C@@H](C)O)C(C)C)C(=O)N[C@@H](CCC(=O)O)C(=O)N[C@@H](Cc1c[nH]c2ccccc12)C(=O)N[C@@H](CC(C)C)C(=O)N[C@@H](CCCCN)C(=O)N[C@@H](C)C(=O)NCC(=O)NCC(=O)N1CCC[C@H]1C(=O)N[C@@H](CCCCN)C(=O)N[C@@H](CCCCN)C(=O)N[C@H](C(=O)N[C@@H](CCCNC(=N)N)C(=O)N[C@@H](Cc1ccc(O)cc1)C(=O)N[C@@H](CO)C(N)=O)[C@@H](C)CC` [Ab P015] (H-GHGEGTFTSDLSKQLEEEAVQLFIEWLKAGGPKKIRYS-NH2; N-terminus assumed), the values for the negative logarithm of the EC50 (pEC50) (on human GIP receptor (setting [2]); in assay [1] (setting [3]); on human GLP-1 receptor (setting [4])) were less than 8.00, less than 8.00 and 10.81, respectively.
For `CC[C@H](C)[C@H](NC(=O)[C@H](Cc1ccccc1)NC(=O)[C@H](CC(C)C)NC(=O)[C@H](CCCNC(=N)N)NC(=O)[C@@H](NC(=O)[C@H](C)NC(=O)[C@H](CCC(=O)O)NC(=O)[C@H](CCC(=O)O)NC(=O)[C@H](CCC(=O)O)NC(=O)[C@H](CC(C)C)NC(=O)[C@H](CCC(N)=O)NC(=O)[C@H](CCCCN)NC(=O)[C@H](CO)NC(=O)[C@H](CC(C)C)NC(=O)[C@H](CC(=O)O)NC(=O)[C@H](CO)NC(=O)[C@@H](NC(=O)[C@H](Cc1ccccc1)NC(=O)[C@@H](NC(=O)CNC(=O)[C@H](CCC(=O)O)NC(=O)CNC(=O)[C@H](Cc1c[nH]cn1)NC(=O)CN)[C@@H](C)O)[C@@H](C)O)C(C)C)C(=O)N[C@@H](CCC(=O)O)C(=O)N[C@@H](Cc1c[nH]c2ccccc12)C(=O)N[C@@H](CC(C)C)C(=O)N[C@@H](CCCCN)C(=O)N[C@@H](C)C(=O)NCC(=O)NCC(=O)N1CCC[C@H]1C(=O)N[C@@H](CCCCN)C(=O)N[C@@H](CCCCN)C(=O)N[C@H](C(=O)N[C@@H](CCCNC(=N)N)C(=O)N[C@@H](Cc1ccc(O)cc1)C(=O)N[C@@H](CO)C(N)=O)[C@@H](C)CC` [Ab P013] (H-GHGEGTFTSDLSKQLEEEAVRLFIEWLKAGGPKKIRYS-NH2), the negative-log EC50 (pEC50) (commonly the EC50 on a negative log10 scale, so that one unit is a factor of ten) is less than 8.00 on human GIP receptor, less than 8.00 in assay [1] and 11.00 at human GLP-1 receptor.
Turning to `CC[C@H](C)[C@H](NC(=O)[C@H](Cc1ccccc1)NC(=O)[C@H](CC(C)C)NC(=O)[C@H](Cc1c[nH]cn1)NC(=O)[C@H](CCC(N)=O)NC(=O)[C@H](C)NC(=O)[C@H](CCC(=O)O)NC(=O)[C@H](CCC(=O)O)NC(=O)[C@H](CCC(=O)O)NC(=O)[C@H](CC(C)C)NC(=O)[C@H](CCC(N)=O)NC(=O)[C@H](CCCCN)NC(=O)[C@H](CO)NC(=O)[C@H](CC(C)C)NC(=O)[C@H](CC(=O)O)NC(=O)[C@H](CO)NC(=O)[C@@H](NC(=O)[C@H](Cc1ccccc1)NC(=O)[C@@H](NC(=O)CNC(=O)[C@H](CCC(=O)O)NC(=O)CNC(=O)[C@H](Cc1c[nH]cn1)NC(=O)CN)[C@@H](C)O)[C@@H](C)O)C(=O)N[C@@H](CCC(=O)O)C(=O)N[C@@H](Cc1c[nH]c2ccccc12)C(=O)N[C@@H](CC(C)C)C(=O)N[C@@H](CCCCN)C(=O)N[C@@H](C)C(=O)NCC(=O)NCC(=O)N1CCC[C@H]1C(=O)N[C@@H](CO)C(=O)N[C@@H](CO)C(=O)NCC(=O)N[C@@H](CCCCN)C(=O)N1CCC[C@H]1C(=O)N1CCC[C@H]1C(=O)N1CCC[C@H]1C(=O)N[C@@H](CCCCN)C(N)=O` [Ab P037] (H-GHGEGTFTSDLSKQLEEEAQHLFIEWLKAGGPSSGKPPPK-NH2; N-terminus assumed), the negative logarithm of the EC50 (pEC50) on human GIP receptor (setting [2]) is less than 8.00; in assay [1] (setting [3]), less than 8.00; at human GLP-1 receptor (setting [4]), 9.80.
For `CC[C@H](C)[C@H](NC(=O)[C@H](Cc1ccccc1)NC(=O)[C@H](CC(C)C)NC(=O)[C@H](CCCNC(=N)N)NC(=O)[C@@H](NC(=O)[C@H](C)NC(=O)[C@H](CCC(=O)O)NC(=O)[C@H](CCC(=O)O)NC(=O)[C@H](CCC(=O)O)NC(=O)[C@H](CC(C)C)NC(=O)[C@H](CCC(N)=O)NC(=O)[C@H](CCCCN)NC(=O)[C@H](CO)NC(=O)[C@H](CCCCN)NC(=O)[C@H](CC(=O)O)NC(=O)[C@H](CO)NC(=O)[C@@H](NC(=O)[C@H](Cc1ccccc1)NC(=O)[C@@H](NC(=O)CNC(=O)[C@H](CCC(=O)O)NC(=O)CNC(=O)[C@H](Cc1c[nH]cn1)NC(=O)CN)[C@@H](C)O)[C@@H](C)O)C(C)C)C(=O)N[C@@H](C)C(=O)N[C@@H](Cc1c[nH]c2ccccc12)C(=O)N[C@@H](CC(C)C)C(=O)N[C@H](C(=O)N[C@@H](CCCCN)C(N)=O)C(C)C` [Ab P040] (H-GHGEGTFTSDKSKQLEEEAVRLFIAWLVK-NH2; N-terminus assumed), the negative logarithm of the EC50 (pEC50) was less than 8.00 at human GIP receptor (setting [2]), less than 8.00 in assay [1] (setting [3]) and 10.20 at human GLP-1 receptor (setting [4]).
As for `CC[C@H](C)[C@H](NC(=O)[C@H](Cc1ccccc1)NC(=O)[C@H](CC(C)C)NC(=O)[C@H](CCCNC(=N)N)NC(=O)[C@@H](NC(=O)[C@H](C)NC(=O)[C@H](CCC(=O)O)NC(=O)[C@H](CCC(=O)O)NC(=O)[C@H](CCC(=O)O)NC(=O)[C@H](CC(C)C)NC(=O)[C@H](CCC(N)=O)NC(=O)[C@H](CCCCN)NC(=O)[C@H](CO)NC(=O)[C@H](CCCCN)NC(=O)[C@H](CC(=O)O)NC(=O)[C@H](CO)NC(=O)[C@@H](NC(=O)[C@H](Cc1ccccc1)NC(=O)[C@@H](NC(=O)CNC(=O)[C@H](CCC(=O)O)NC(=O)CNC(=O)[C@H](Cc1c[nH]cn1)NC(=O)CN)[C@@H](C)O)[C@@H](C)O)C(C)C)C(=O)N[C@@H](CCC(=O)O)C(=O)N[C@@H](Cc1c[nH]c2ccccc12)C(=O)N[C@@H](CC(C)C)C(=O)N[C@@H](CCCCN)C(=O)N[C@@H](C)C(=O)NCC(=O)NCC(=O)N1CCC[C@H]1C(=O)N[C@@H](CCCCN)C(=O)N[C@@H](CCCCN)C(=O)N[C@H](C(=O)N[C@@H](CCCNC(=N)N)C(=O)N[C@@H](Cc1ccc(O)cc1)C(=O)N[C@@H](CO)C(N)=O)[C@@H](C)CC` [Ab P014] (H-GHGEGTFTSDKSKQLEEEAVRLFIEWLKAGGPKKIRYS-NH2; N-terminus assumed), the pEC50 at human GIP receptor (setting [2]) is less than 8.00; in assay [1] (setting [3]), 8.27; on human GLP-1 receptor (setting [4]), 10.98.
